Experimental findings from ChEMBL document CHEMBL2073972, “Contribution of OATP2 (OATP1B1) and OATP8 (OATP1B3) to the hepatic uptake of pitavastatin in humans” (J Pharmacol Exp Ther, 2004) are described below.

For series [1], the target named is T1, Solute carrier organic anion transporter family member 1B1 (Homo sapiens, UniProt Q9Y6L6).
T1 sequence (Q9Y6L6 whole entry): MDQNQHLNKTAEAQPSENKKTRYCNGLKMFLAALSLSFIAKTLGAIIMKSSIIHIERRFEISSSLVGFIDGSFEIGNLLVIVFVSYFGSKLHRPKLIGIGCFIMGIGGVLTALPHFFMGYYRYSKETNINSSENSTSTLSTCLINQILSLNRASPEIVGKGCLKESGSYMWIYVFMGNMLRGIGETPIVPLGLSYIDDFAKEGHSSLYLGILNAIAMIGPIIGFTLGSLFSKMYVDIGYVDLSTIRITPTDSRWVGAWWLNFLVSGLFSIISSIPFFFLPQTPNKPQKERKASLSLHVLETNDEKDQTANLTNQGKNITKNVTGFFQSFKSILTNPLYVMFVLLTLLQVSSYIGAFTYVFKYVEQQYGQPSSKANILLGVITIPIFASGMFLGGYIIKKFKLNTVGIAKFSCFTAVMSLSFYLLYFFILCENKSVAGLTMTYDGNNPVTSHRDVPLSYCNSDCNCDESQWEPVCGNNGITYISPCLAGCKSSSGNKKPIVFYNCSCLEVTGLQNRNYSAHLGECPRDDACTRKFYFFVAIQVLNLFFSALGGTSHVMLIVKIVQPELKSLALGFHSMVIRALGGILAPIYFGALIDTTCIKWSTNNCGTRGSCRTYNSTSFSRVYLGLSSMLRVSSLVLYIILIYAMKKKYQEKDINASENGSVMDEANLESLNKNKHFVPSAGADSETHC
Description: TP_TRANSPORTER: cell accumulation in OATP2-expressing HEK293 cells. In kind it is functional, cell-based.

Series [2] has as its target T2, Solute carrier organic anion transporter family member 1B3 (Homo sapiens, UniProt Q9NPD5).
T2 sequence (Q9NPD5 whole entry): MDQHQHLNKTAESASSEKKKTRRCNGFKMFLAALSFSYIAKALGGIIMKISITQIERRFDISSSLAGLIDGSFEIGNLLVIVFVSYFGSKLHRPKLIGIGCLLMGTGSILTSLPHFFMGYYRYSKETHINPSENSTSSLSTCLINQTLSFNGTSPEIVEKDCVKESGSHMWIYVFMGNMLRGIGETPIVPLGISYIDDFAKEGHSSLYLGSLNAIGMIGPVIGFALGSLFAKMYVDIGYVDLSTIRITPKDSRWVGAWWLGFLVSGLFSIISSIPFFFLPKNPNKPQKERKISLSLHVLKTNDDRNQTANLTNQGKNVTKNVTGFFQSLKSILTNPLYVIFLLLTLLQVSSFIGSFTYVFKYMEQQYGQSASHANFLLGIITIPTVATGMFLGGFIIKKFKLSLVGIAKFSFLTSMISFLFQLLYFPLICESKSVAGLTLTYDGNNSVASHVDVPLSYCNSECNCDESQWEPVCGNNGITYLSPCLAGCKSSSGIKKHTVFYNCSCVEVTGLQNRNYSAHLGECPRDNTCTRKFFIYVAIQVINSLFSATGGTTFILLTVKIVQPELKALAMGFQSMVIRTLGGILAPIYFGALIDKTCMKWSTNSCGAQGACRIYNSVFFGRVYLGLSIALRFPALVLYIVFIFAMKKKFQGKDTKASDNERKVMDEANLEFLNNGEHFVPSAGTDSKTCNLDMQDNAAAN
Description: TP_TRANSPORTER: cell accumulation in OATP8-expressing HEK293 cells. In kind it is functional, cell-based.

In the case of `C[C@]12CC[C@@H]3c4ccc(O)cc4CC[C@H]3[C@@H]1CC[C@@H]2O[C@@H]1O[C@H](C(=O)O)[C@@H](O)[C@H](O)[C@H]1O` [ESTRADIOL 17B GLUCURONIDE], the Activity result in series [1] and in series [2] was “substrate []” each time.

Take `C[C@]12CC[C@@H]3c4ccc(OS(=O)(=O)O)cc4CC[C@H]3[C@@H]1CCC2=O` [ESTRONE SULFURIC ACID]: the Activity entry in series [1] and in series [2] was “substrate []” throughout.

Turning to `O=C(O)C[C@H](O)C[C@H](O)/C=C/c1c(C2CC2)nc2ccccc2c1-c1ccc(F)cc1` [PITAVASTATIN], the Activity result in series [1] and in series [2] was “substrate []” throughout.

In the case of `CSCC[C@H](NC(=O)[C@H](Cc1ccc(OS(=O)(=O)O)cc1)NC(=O)[C@@H](N)CC(=O)O)C(=O)NCC(=O)N[C@@H](Cc1c[nH]c2ccccc12)C(=O)N[C@@H](CCSC)C(=O)N[C@@H](CC(=O)O)C(=O)N[C@@H](Cc1ccccc1)C(N)=O` [SINCALIDE], the Activity entry in series [1] and in series [2] was “substrate []” throughout.
